Test results: patent US20250000849A1, “COMPOSITE COMPOSITION CONTAINING ANGIOTENSIN RECEPTOR BLOCKER AND SGLT2 INHIBITOR” (MEDITAKE CO., LTD., priority 2021, published 2025)

Legend:
Assay type in all cases: in vivo
Design in all cases: unit not given here
[1] = test system: spontaneously hypertensive rat (SHR); assay: Blood pressure-lowering effect of combined administration of angiotensin receptor blocker and empagliflozin in SHR; details: Empagliflozin 1 mg/kg/day, Day 14 (4 h)
[2] = test system: spontaneously hypertensive rat (SHR); assay: as above; details: Empagliflozin 1 mg/kg/day
Method: (§1) The animals were housed in a room with a temperature of […] relative humidity of 50±10%, and a 12-hour light/dark cycle, and food and water were provided ad libitum.
(§2) All data are expressed as mean±S.E.M. Blood pressure measurements were schematized using GraphPad Prism 9 (GraphPad Software Inc., San Diego, CA).
Blood pressure was measured daily immediately before (0 hr) and 4 hours after (4 hr) dosing while administering the drug for a total of 19 days, and the recovery of blood pressure was monitored during a 1-week recovery period after the end of administration. Specifically, the animals were divided into two groups to evaluate the blood pressure response when fimasartan (Group 1) or dapagliflozin (Group 2) was administered alone, and to evaluate the blood pressure response to the addition of the other drugs in sequentially increasing doses, and the results are shown in FIG. 2.
The experiments were conducted in the same manner as in Example 3 above, but using empagliflozin as an SGLT2 inhibitor.
The angiotensin receptor blockers, fimasartan, azilsartan, and olmesartan were divided by dose, and each administered alone or in combination with empagliflozin, and the results of blood pressure measurements in each experimental group are shown in Table 4 and FIGS. 7 to 9 below.

[3] = test system: spontaneously hypertensive rat (SHR); assay: Blood pressure-lowering effect of combined administration of angiotensin receptor blocker and dapagliflozin in SHR; details: Dapagliflozin 1 mg/kg/day
Method: as §1, §2
Blood pressure was measured daily immediately before (0 hr) and 4 hours after (4 hr) dosing while administering the drug for a total of 19 days, and the recovery of blood pressure was monitored during a 1-week recovery period after the end of administration.

SMILES	Blood pressure, Mean [1]	Blood pressure, Mean ([2]; Day 1 (pre-dose))	Blood pressure, Mean ([2]; Day 7 (4 h))	Blood pressure, Mean ([2]; Recovery)	Blood pressure, Mean ([3]; Day 1 (pre-dose))	Blood pressure, Mean ([3]; Day 7 (4 h))	Blood pressure, Mean ([3]; Day 14 (4 h))	Blood pressure, Mean ([3]; Recovery)
OC[C@H]1O[C@@H](c2ccc(Cl)c(Cc3ccc(O[C@H]4CCOC4)cc3)c2)[C@H](O)[C@@H](O)[C@@H]1O [Empagliflozin, empagliflozin]	96.4	100.0	97.1	101.8	–	–	–	–
CCOc1ccc(Cc2cc([C@@H]3O[C@H](CO)[C@@H](O)[C@H](O)[C@H]3O)ccc2Cl)cc1 [Dapagliflozin, dapagliflozin]	–	–	–	–	100.0	101.2	96.5	105.5
